In ChEMBL document CHEMBL1221255, “New halogenated 3-phenylcoumarins as potent and selective MAO-B inhibitors” (Bioorg Med Chem Lett, 2010):

Legend:
Homo sapiens = species: Homo sapiens; experiment: Selectivity ratio of IC50 for human MAOA to IC50 for human MAOB
[1] = biological target: T1, Amine oxidase [flavin-containing] B (Homo sapiens, UniProt P27338); experiment: Inhibition of human MAOB expressed in BTI insect cells; type: cell-based
T1 sequence (P27338 whole entry): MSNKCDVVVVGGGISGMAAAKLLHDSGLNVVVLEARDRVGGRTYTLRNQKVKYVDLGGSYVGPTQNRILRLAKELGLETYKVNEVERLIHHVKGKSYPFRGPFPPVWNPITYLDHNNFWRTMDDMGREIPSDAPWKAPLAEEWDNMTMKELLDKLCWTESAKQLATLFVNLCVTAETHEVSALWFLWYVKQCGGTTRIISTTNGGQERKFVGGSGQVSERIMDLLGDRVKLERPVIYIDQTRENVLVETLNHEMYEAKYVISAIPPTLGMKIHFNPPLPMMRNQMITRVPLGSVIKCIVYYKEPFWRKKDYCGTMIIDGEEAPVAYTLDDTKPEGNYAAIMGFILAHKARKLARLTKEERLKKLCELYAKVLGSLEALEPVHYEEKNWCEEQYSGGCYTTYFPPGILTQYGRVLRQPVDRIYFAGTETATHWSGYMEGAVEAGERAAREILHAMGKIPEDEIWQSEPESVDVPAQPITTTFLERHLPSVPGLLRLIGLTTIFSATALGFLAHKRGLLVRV

[2] = biological target: T2, Amine oxidase [flavin-containing] A (Homo sapiens, UniProt P21397); experiment: Inhibition of human MAOA expressed in BTI insect cells
T2 sequence (P21397 whole entry): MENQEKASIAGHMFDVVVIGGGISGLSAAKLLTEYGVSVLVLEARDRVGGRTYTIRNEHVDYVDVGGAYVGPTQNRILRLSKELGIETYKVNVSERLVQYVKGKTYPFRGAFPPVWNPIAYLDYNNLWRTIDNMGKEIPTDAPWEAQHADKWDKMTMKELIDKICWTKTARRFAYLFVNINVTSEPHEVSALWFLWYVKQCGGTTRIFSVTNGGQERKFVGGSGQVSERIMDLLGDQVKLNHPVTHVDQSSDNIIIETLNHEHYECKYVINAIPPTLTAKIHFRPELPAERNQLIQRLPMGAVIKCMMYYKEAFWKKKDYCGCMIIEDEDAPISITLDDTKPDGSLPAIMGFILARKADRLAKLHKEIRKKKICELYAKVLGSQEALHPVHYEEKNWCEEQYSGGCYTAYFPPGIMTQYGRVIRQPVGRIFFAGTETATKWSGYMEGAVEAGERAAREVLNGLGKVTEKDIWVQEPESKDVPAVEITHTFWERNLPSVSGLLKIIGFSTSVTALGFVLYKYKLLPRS

[3] = biological target: T2, Amine oxidase [flavin-containing] A; experiment: Inhibition of MAOA expressed in BTI insect cells at 100 uM

Compound | Ratio IC50 (Homo sapiens) | IC50 [1] [nM] | IC50 [2] [nM] | IC50 [3]
COc1cc(-c2cc3cc(C)cc(Br)c3oc2=O)cc(OC)c1OC | 6.4 | 4890 | 31200 | –
Cc1cc(Br)c2oc(=O)c(-c3ccccc3)cc2c1 | > 9050 | 11.1 | – | Not Active

Continued by falling IC50 [1], values first:

Ratio IC50 (Homo sapiens) | IC50 [1] [nM] | IC50 [2] [nM] | IC50 [3] | Compound
> 23 | 4300 | – | Not Active | Cc1ccc2oc(=O)c(-c3ccccc3Br)cc2c1
> 14000 | 7.12 | – | Not Active | COc1cc(OC)cc(-c2cc3cc(C)cc(Br)c3oc2=O)c1
> 31000 | 3.23 | – | Not Active | COc1ccc(-c2cc3cc(C)cc(Br)c3oc2=O)cc1
